Here are results for eleven compounds from ChEMBL document CHEMBL1201862, “PubChem BioAssay data set” (2004).

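Briefly, cells in 96-well plates were exposed to five compound concentrations for 48 h, and endpoints were estimated by linear interpolation. GI50: concentration for 50% inhibition of growth.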 The source made the active and inactive calls. No stated cut-off is given here; in the data, active = GI50 up to about 1.1 µM and inactive = higher.

Common to all, as to assay: NCI anticancer screen, dose series, 48 h
In experiment [1] the test system is TK-10.
The test system of experiment [2] is HOP-92.
Experiment [3] has as its system HCC 2998.
Experiment [4] relates to RPMI-8226.
Experiment [5] has as its system BT-549.
In experiment [6] the test system is KM12.
In experiment [7] the test system is Malme-3M.
In experiment [8] the test system is OVCAR-3.
In experiment [9] the test system is PC-3.
Experiment [10] concerns SK-MEL-5.
The subject of experiment [11] is T47D.
Experiment [12] has as its system IGROV-1.
Experiment [13] has as its system ACHN.
Experiment [14] deals with M14.
Experiment [15] has as its system OVCAR-4.
The subject of experiment [16] is UO-31.
Experiment [17] has as its system UACC-257.
For experiment [18], the system named is MCF7.
Experiment [19] has as its system HT-29.
The subject of experiment [20] is HL-60.

Take `CCCCCCCC/C=C(\Br)C(O)C(Br)Br` (stereo not given): the GI50 in experiment [1] is 39.4 µM (inactive); in [2], 20.9 µM (inactive); in experiment [3] it was 18.8 µM (inactive); in experiment [4], 42.7 µM (inactive); in [5], 22.4 µM (inactive); in experiment [6], 19.1 µM (inactive). The GI50 in experiment [7] was 21.1 µM (inactive); in [8] it was 17.4 µM (inactive); in experiment [9], 38.1 µM (inactive); in [10] it was 17.9 µM (inactive); in experiment [11], 31 µM (inactive); in experiment [12], 24.7 µM (inactive). The GI50 in experiment [13] is 22.3 µM (inactive); in experiment [14], 22.7 µM (inactive); in [15], 20.6 µM (inactive); in [16] it was 19.4 µM (inactive); in experiment [17], 28 µM (inactive); in experiment [18], 25.5 µM (inactive).

Turning to `Nc1ccc(C(=O)N2CCC[C@H]2CO)c(N)c1`, the GI50 in experiment [1], in experiment [2], in experiment [3], in [4], in [5] and in [6] was > 100 µM (inactive) throughout. The GI50 in experiment [19], in experiment [8], in experiment [9], in [10], in [11] and in experiment [12] was > 100 µM (inactive) throughout. Further, the GI50 in experiment [13], in [20], in experiment [14], in experiment [15], in [16] and in experiment [17] was > 100 µM (inactive) each time. For the same compound, the GI50 in [18] is > 100 µM (inactive).

With `Cc1ccc(-n2nncc2[Si](C)(C)C)s1`, the GI50 in [1], in experiment [2], in [3], in [4], in experiment [5] and in experiment [19] was > 100 µM (inactive) throughout. Further, the GI50 in experiment [7], in [8], in experiment [9], in [10], in experiment [11] and in experiment [13] was > 100 µM (inactive) in each case. For the same compound, the GI50 in experiment [14], in experiment [15], in experiment [16], in experiment [17] and in experiment [18] was > 100 µM (inactive) in each case.

As to `Cn1nnnc1SC(F)(F)c1nc2ccccc2o1`, the GI50 in experiment [1] is > 100 µM (inactive); in experiment [2], > 100 µM (inactive); in [3], > 100 µM (inactive); in [4] it was > 100 µM (inactive); in experiment [5] it was > 100 µM (inactive); in experiment [6] it was 35.9 µM (inactive). For the same compound, the GI50 in experiment [19], in experiment [7], in [8], in experiment [9], in [10] and in experiment [11] was > 100 µM (inactive) in each case. Moreover, the GI50 in [12], in experiment [13], in experiment [14], in experiment [15], in [16] and in [17] was > 100 µM (inactive) in each case. Moreover, the GI50 in experiment [18] was > 100 µM (inactive).

For `COc1ccc2c3c1OC1C(=O)C=CC4(CC2)N(C)CCC314` (stereo not given), the GI50 is 27.3 µM (inactive) in [1]; 22.7 µM (inactive) in [2]; 13.8 µM (inactive) in [3]; 17 µM (inactive) in experiment [4]; 23.6 µM (inactive) in [5]; 14.1 µM (inactive) in experiment [6]. Further, the GI50 is 28.6 µM (inactive) in experiment [19]; 35.1 µM (inactive) in experiment [7]; 19.4 µM (inactive) in experiment [8]; 21.7 µM (inactive) in experiment [9]; 10.4 µM (inactive) in [10]; 19.4 µM (inactive) in [11]. For the same compound, the GI50 in experiment [12] was 23.7 µM (inactive); in experiment [13] it was 18.9 µM (inactive); in [14] it was 16.6 µM (inactive); in experiment [15], 24 µM (inactive); in experiment [16], 16.3 µM (inactive); in experiment [17], 28.6 µM (inactive). Moreover, the GI50 in experiment [18] is 20.2 µM (inactive).

On to `CC(C)=CCc1[nH]c2ccccc2c1C1=C(O)C(=O)C(c2c(CC=C(C)C)[nH]c3ccccc23)=C(O)C1=O`, for which the GI50 in experiment [2] was 1.12 µM (inactive); in experiment [3], 1.01 µM (active); in experiment [4], 2.3 µM (inactive); in [5] it was 0.419 µM (active); in experiment [6], 1.04 µM (active); in experiment [19], 2.22 µM (inactive). The GI50 in experiment [7] was 0.628 µM (active); in [8], 1.48 µM (inactive); in [9], 1.83 µM (inactive); in experiment [10], 1.76 µM (inactive); in [11], 2.76 µM (inactive); in [12], 0.573 µM (active). Further, the GI50 in [13] was 1.56 µM (inactive); in experiment [20], 2.19 µM (inactive); in experiment [14], 3.24 µM (inactive); in [15], 3.58 µM (inactive); in experiment [16], 1.49 µM (inactive); in [17], 2.12 µM (inactive). Besides, the GI50 in experiment [18] was 2.26 µM (inactive).

As to `c1ccc(C2=NC3OC2c2ccccc23)cc1` (stereo not given), the GI50 in experiment [1], in [2], in experiment [3], in experiment [4], in experiment [5] and in [6] was > 10 µM (inactive) throughout. Moreover, the GI50 in [19], in experiment [7], in experiment [8], in [9], in experiment [10] and in experiment [11] was > 10 µM (inactive) throughout. The GI50 in experiment [12], in experiment [13], in experiment [20], in experiment [14], in [15] and in experiment [17] was > 10 µM (inactive) in each case. Moreover, the GI50 in [18] is 3.15 µM (inactive).

As for `COc1cc2c(cc1O)CCN[C@@]21CS[C@H]2c3c(OC(C)=O)c(C)c4c(c3C(COC1=O)N1C2C2c3c(cc(C)c(OC)c3O)CC([C@@H]1O)N2C)OCO4` (stereo not given in full), the GI50 in experiment [1] was < 0.0001 µM (active); in experiment [2], < 0.0001 µM (active); in experiment [3] it was 0.0001 µM (active); in experiment [4], 0.00191 µM (active); in [5] it was 0.00181 µM (active); in experiment [6], < 0.0001 µM (active). Besides, the GI50 in experiment [19] is 0.00128 µM (active); in [7], < 0.0001 µM (active); in experiment [8], < 0.0001 µM (active); in [9] it was < 0.0001 µM (active); in [10], < 0.0001 µM (active); in experiment [11], 0.00296 µM (active). In addition, the GI50 in experiment [12], in experiment [13], in experiment [20], in experiment [14], in experiment [15] and in experiment [17] was < 0.0001 µM (active) throughout. In addition, the GI50 in [18] was < 0.0001 µM (active).

For `COc1ccccc1-c1nc(-c2ccccc2O)n[nH]1`, the GI50 in experiment [1], in [2], in experiment [3], in experiment [4], in experiment [5] and in [6] was > 100 µM (inactive) throughout. Moreover, the GI50 is > 100 µM (inactive) in experiment [19]; > 100 µM (inactive) in [8]; > 100 µM (inactive) in [9]; > 100 µM (inactive) in [10]; 37.2 µM (inactive) in experiment [11]; > 100 µM (inactive) in [13]. Besides, the GI50 in experiment [20], in experiment [14], in experiment [15], in experiment [16], in experiment [17] and in [18] was > 100 µM (inactive) in each case.

For the compound `COc1cc(/C=C2\CC3C4CC[C@H]5C[C@@H](O)CC[C@]5(C)C4CC[C@]3(C)C2=O)cc(OC)c1OC` (stereo not given in full), the GI50 in [1] was 27.6 µM (inactive); in experiment [2] it was 26.5 µM (inactive); in experiment [3], 7.13 µM (inactive); in [4], 4.17 µM (inactive); in [5], 24.8 µM (inactive); in [6], 9.75 µM (inactive). Besides, the GI50 is 9.44 µM (inactive) in experiment [19]; 19.5 µM (inactive) in [7]; 5.48 µM (inactive) in [9]; 9.29 µM (inactive) in experiment [10]; 3.7 µM (inactive) in experiment [11]; 36.6 µM (inactive) in [12]. The GI50 in experiment [13] is 11.8 µM (inactive); in [20], 5.75 µM (inactive); in [14], 17.4 µM (inactive); in experiment [15], 4.61 µM (inactive); in experiment [16], 4.08 µM (inactive); in experiment [17], 21.8 µM (inactive). Besides, the GI50 in experiment [18] is 4.25 µM (inactive).

Turning to `CCCC(=O)NC1=C(Cl)C(=O)c2ccccc2C1=O`, the GI50 in experiment [1] is 4.89 µM (inactive); in [2] it was 1.82 µM (inactive); in [3], 4.22 µM (inactive); in experiment [4], 1.48 µM (inactive); in experiment [5], 5.43 µM (inactive); in experiment [6], 3.01 µM (inactive). The GI50 was 8.49 µM (inactive) in [19]; 2.29 µM (inactive) in experiment [8]; 3.23 µM (inactive) in experiment [9]; 2.67 µM (inactive) in experiment [10]; 2.25 µM (inactive) in experiment [11]; 5.07 µM (inactive) in experiment [12]. Besides, the GI50 in experiment [13] was 1.73 µM (inactive); in experiment [20], 0.145 µM (active); in experiment [14], 3.13 µM (inactive); in [15] it was 4.51 µM (inactive); in experiment [16], 2.96 µM (inactive); in experiment [17], 4.29 µM (inactive). Moreover, the GI50 in [18] was 2.39 µM (inactive).
